Measured values published in US12714686B2, “N-propargylglycine: a unique inhibitor of proline dehydrogenase with brain-enhancing mitohormesis properties capable of mitigating the pathogenesis of neurodegenerative disorders” (Buck Institute for Research on Aging, priority 2020, dated 2026).
“Also recorded” adds a separate entry of the source.

Legend:
[1] = test system: PRODH expressing mammalian cell systems; experiment: UPRmt activation and mitohormesis induction in PRODH expressing mammalian cell systems; format: cell-based; settings: all PRODH expressing mammalian cell systems studied to date
[2] = target: T1, proline dehydrogenase (PRODH) (Homo sapiens, UniProt O43272); experiment: PRODH enzyme inhibition; format: biochemical
T1 sequence (O43272 1-600): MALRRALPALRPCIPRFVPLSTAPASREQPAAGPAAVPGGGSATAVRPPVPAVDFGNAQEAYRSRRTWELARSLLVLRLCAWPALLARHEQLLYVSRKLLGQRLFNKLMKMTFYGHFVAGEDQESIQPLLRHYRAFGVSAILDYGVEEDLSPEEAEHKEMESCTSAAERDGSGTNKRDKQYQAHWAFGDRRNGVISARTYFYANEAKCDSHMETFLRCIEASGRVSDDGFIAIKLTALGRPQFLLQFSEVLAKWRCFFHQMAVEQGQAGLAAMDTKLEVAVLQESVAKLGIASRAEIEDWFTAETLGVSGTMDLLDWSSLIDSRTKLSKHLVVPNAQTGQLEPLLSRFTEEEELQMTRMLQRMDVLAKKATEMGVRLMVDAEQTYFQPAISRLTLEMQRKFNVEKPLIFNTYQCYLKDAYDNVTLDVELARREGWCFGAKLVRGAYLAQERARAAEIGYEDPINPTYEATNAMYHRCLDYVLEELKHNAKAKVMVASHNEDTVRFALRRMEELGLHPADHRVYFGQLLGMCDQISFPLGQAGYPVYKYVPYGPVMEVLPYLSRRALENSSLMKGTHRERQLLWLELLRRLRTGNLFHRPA

PRODH [3] = target: T2, PRODH (Mus musculus, UniProt Q9WU79); experiment: Study A: oral N-PPG in wildtype mice, whole brain PRODH protein (western blot) and mRNA; format: in vivo; settings: whole brain lysates
T2 construct: Western blots of whole brain lysates from wildtype B6/CBA mice; from tissue; R6/2 Htt-mut in B6/CBA background
T2 sequence (Q9WU79 1-599): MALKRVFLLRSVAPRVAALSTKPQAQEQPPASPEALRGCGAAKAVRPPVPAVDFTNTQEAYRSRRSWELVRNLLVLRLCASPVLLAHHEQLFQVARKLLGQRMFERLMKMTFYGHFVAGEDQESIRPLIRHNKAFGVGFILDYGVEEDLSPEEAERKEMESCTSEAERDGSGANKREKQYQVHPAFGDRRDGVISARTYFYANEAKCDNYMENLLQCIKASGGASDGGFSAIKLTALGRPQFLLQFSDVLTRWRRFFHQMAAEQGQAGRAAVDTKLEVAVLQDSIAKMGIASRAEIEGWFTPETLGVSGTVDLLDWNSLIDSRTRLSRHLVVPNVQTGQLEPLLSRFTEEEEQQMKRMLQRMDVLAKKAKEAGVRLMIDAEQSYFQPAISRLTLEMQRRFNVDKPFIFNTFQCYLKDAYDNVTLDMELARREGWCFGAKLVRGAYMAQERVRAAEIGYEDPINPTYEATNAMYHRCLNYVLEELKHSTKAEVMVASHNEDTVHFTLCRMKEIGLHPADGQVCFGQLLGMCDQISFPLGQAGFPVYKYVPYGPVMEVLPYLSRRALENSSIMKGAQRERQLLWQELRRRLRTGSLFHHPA
Procedure: (§1) For Study A, beginning at 5 weeks of age, seven male and female mice (WT) were daily administered oral N-PPG over a graduated dose range of 50 mg/kg to 200 mg/kg for 9 days, while 4 other age- and sex-matched control mice (W) were given only daily saline.
(§2) For Study B, beginning at 5-weeks of age, four male and female Htt-mut mice (HT) were administered oral N-PPG at 50 mg/kg daily for 9 days, while four other age- and sex-matched Htt-mut mice (H) were given only daily saline. All Study A and B mice were sacrificed within 4 h of receiving their last treatment (week 7). […] Excised brains were snap frozen in liquid nitrogen for latter cryopulverization, extraction and analysis of total brain RNA and protein.

YME1L1 [4] = experiment: Study A: brain UPRmt protease YME1L1 mRNA and protein expression; format: in vivo, mouse
Procedure: as §1, §2

HSP-60 = experiment: Study A: brain chaperone HSP-60 transcripts by RT-PCR; format: in vivo; settings: single mouse brain, 200 mg/kg oral N-PPG, 9 days
Procedure: as §1, §2

[5] = test system: mouse brain transcriptome; experiment: Study A: whole brain transcriptome (RNAseq) and pathway analysis; format: in vivo
Procedure: as §1, §2

[6] = Tolerability of oral N-PPG in Study A and B mice (body weight, vitality, side effects); format: in vivo, mouse
Procedure: as §1, §2

PRODH [7] = target: T2, PRODH; experiment: Study B: oral N-PPG in Htt-mut (R6/2) mice, whole brain PRODH protein; format: in vivo; settings: HT mice, 50 mg/kg/day orally x 9 days vs saline, compared with wildtype
Procedure: as §2

YME1L1 [8] = experiment: Study B: brain YME1L1 in Htt-mut and wildtype mice; format: in vivo, mouse; settings: 50 mg/kg/day oral N-PPG, 9 days
Procedure: as §2

[9] = test system: Htt-mut mouse brain transcriptome; experiment: Study B: whole brain RNA transcriptome (RNAseq) of Htt-mut mice; format: in vivo
Procedure: as §2

[10] = Brain penetration of orally administered N-PPG; format: in vivo; settings: oral, repeated administration; inferred from brain UPRmt induction
[11] = over-representation analysis, FDR p<0.05

With `O=C(O)C1NCCS1` (centres unmarked) [T2C] the “activation of UPRmt and induction of mitohormesis” value (“activation” for short) [1] was “do not activate the UPRmt or induce mitohormesis” and the “PRODH enzyme inhibiting potency relative to N-PPG” value [2] was “comparable”.
With `O=C(O)C1CCCO1` (centres unmarked) [THFA] the “activation” value [1] was “do not activate the UPRmt or induce mitohormesis” and the “PRODH enzyme inhibiting potency relative to N-PPG” value [2] was “comparable”.
With `O=C1CCC(C(=O)O)O1` (centres unmarked) [5-oxo] the “activation” value [1] was “do not activate the UPRmt or induce mitohormesis” and the “PRODH enzyme inhibiting potency relative to N-PPG” value [2] was “comparable”.
In the case of `C#CCNCC(=O)O` [N-PPG, N-propargylglycine], the “reduction in mean PRODH expression (PRODH signals normalized to β-actin or Rieske)” value (PRODH [3]; wildtype B6/CBA mice, oral 50 mg/kg N-PPG for nine days vs saline) is reported as “at least 30%”, the “normalized mean PRODH expression levels” value (PRODH [3]; wildtype mice, oral saline, 50, 100, 150 or 200 mg/kg N-PPG) is reported as “dose-dependent decline” and the “mitochondrial YME1L1 mRNA and protein expression” value (YME1L1 [4]; WT mice, 50 mg/kg dose, brain) is reported as “increased”. The “induction of mitochondrial protease YME1L1 transcripts relative to housekeeping transcripts” value (YME1L1 [4]; single mouse brain, 200 mg/kg oral N-PPG, 9 days, RT-PCR) was 1.4 fold, the “increase in mean YME1L1 expression (signals normalized to β-actin or Rieske)” value (YME1L1 [4]; wildtype mice, 50 mg/kg oral N-PPG vs saline, whole brain lysates, western blot) was ~ 40% and the “induction of chaperone HSP-60 transcripts relative to housekeeping transcripts” value (HSP-60) was 1.7 fold. The “whole brain transcriptome pathway analysis” value ([5]; WT vs W mice, RNAseq, FDR p<0.05) was “upregulation of pathways (GO, Reactome) specifically regulating neuronal cell functions”, the “genes differentially expressed (p<0.05) between N-PPG treated and saline treated brains” value ([5]; five WT (50 mg/kg, one 100 mg/kg, oral 9 days) vs four W brains, RNAseq) was 1324 genes and the “upregulated genes among the differentially expressed genes” value ([5]; five WT vs four W brains, RNAseq) was 841 genes. The “Reactome neural pathways encoded by upregulated genes” value [5, 11] was 7, the “enriched Gene Ontology (GO) pathways encoded by upregulated genes” value [5, 11] was 77 and the “health of mice at sacrifice (repeated body weight and vitality measurements)” value ([6]; all Study A and B mice, week 7) was “healthy and asymptomatic”. For the same molecule, the “systemic or neurologic side effects” value ([6]; mice, daily oral 50 to 200 mg/kg N-PPG, 9 days) was “without any systemic or neurologic side effects; also recorded: without causing any adverse systemic or neurologic consequences”, the “brain PRODH protein decay in Htt-mut mice” value (PRODH [7]) was “partial mitochondrial PRODH protein degradation” and the “brain YME1L1 in Htt-mut and wildtype mice” value (YME1L1 [8]) was “YME1L1 upregulation”. For the same molecule, the “normalization of deranged whole brain transcriptome of Htt-mut mice” value ([9]; HT mice, 50 mg/kg/day orally x 9 days vs untreated H, includes TH, DRD1, ADORA2A, 50 mg/kg/day) was “partial-to complete normalization; also recorded: normalizes HT transcriptomes away from Htt-mut (H) and more toward wildtype (W)”, the “differentially expressed genes between WT, HT, W and H brains” value ([9]; Study B, RNAseq, FDR p<0.05) was 622 genes and the “Htt-mut treated mice with full transcriptome normalization” value ([9]; four HT mice, 50 mg/kg/day orally x 9 days) was “one of the four”. For the same molecule, the “crossing of the blood-brain-barrier” value [10] was “capable of crossing the mammalian blood-brain-barrier” and the “activation” value [1] was “activate the mitochondrial unfolded protein response (UPRmt) and induce mitohormesis”.
